Bounds are passed on as bounds.

Assay type in all cases: cell-based
In data set [1] the test system is Respiratory syncytial virus recombinant with luciferase (RSV-Luc5) in HEp-2 cells. Nature of the data set: HEp-2 RSV-Luc5 384-well assay (EC50 RSVFLUC Hep2-384, Example R). Conditions: human respiratory syncytial virus, HEp-2, 72 h, read-out: RSV Hep-2 FLuc EC50 (nM) (per Ex. R). The text has this: (§1) HEp-2 cell line was purchased from ATCC (Manassas, VA Cat #CCL-23) and maintained in Dulbecco's […] (DMEM) (Corning, New York, NY, Cat #15-018CM) supplemented with 10% fetal bovine serum (FBS) (Hyclone, Logan, UT, Cat #SH30071-03) and 1× Penicillin-Streptornycin-L-Glutamine (Corning, New York, NY, Cat #30-009-CI). Cells were passaged 2 times per week to maintain sub-confluent densities and were used for experiments at passage 5-20. Respiratory syncytial virus recombinant with luciferase (RSV-Luc5) direct pelleted virus (≥1×107 TCID50/ml) was purchased from Microbiologics (Saint Cloud, MN). Viral replication was determined in HEp-2 cells in the following manner.
Compounds are prepared in 384-well polypropylene plates (Greiner, Monroe, NC, Cat #784201) with 8 compounds per plate in grouped replicates of 4 at 10 serially diluted concentrations (1:3).
HEp-2 cells were suspended in DMEM (supplemented with 10% FBS and 1×Penicillin-Streptonycin-L-Glutimine) and 60 μL of 4,000 cells per well were seeded into 384-well plates (Greiner, Monroe, NC, Cat #781080) using Biotek MultiFlo dispenser. After overnight incubation at 37° C. and 5% CO2, 0.4 uL of three-fold serial dilutions of compound was added to each well using a Biomek FX pipette station. RSV-Luc5 viruses were diluted in DMEM (supplemented with 10% FBS and 1× Penicillin-Streptonycin-L-Glutainie) at an MOI=0.5. Virus suspension was added to each 384-well compound plate at 20 uL per well using a Biotek MultiFlo dispenser. The assay plates were incubated for 3 days at 37° C. and 5% CO2. At the end of incubation, One-Glo reagent (Promega, Madison, WI, Cat #E6120) was prepared. The assay plate and the reagent were equilibrated to room temperature for 30 minutes. 50 uL per well of medium was removed from assay plate and 40 uL per well of One-Glo reagent was added to each plate by Biomek FX. The plates were sat at room temp for 15 minutes. Viral replication was then assessed by measuring luminescence signal using and Envision plate reader. Remdesivir was used as positive control and DMSO was used as negative control. Values were normalized to the positive and negative controls (as 0% and 100% replication, respectively) and data was fitted using non-linear regression analysis by Gilead's dose response tool. The EC50 value for each compound was then determined as the concentration reducing the viral replication by 50%.

Data set [2] can be described thus: RSV HEP2-CC50-384-V2 (per Ex. V). Conditions: human.
Data set [3] has as its system Respiratory syncytial virus recombinant with luciferase (RSV-Luc5) in HEp-2 cells. Nature of the data set: HEp-2 RSV-Luc5 384-well assay (EC50 RSVFLUC Hep2-384 v2, Example V). Conditions: human respiratory syncytial virus, HEp-2, 72 h, read-out: RSV Hep-2 FLuc EC50 (v2) (nM) (per Ex. V).
Excerpt: as §1, with “Penicillin-Streptonycin-L-Glutamine” for “Penicillin-Streptornycin-L-Glutamine”, “(RSV-Luc5)” for “(RSV-Luc5) direct pelleted virus”
Compounds are prepared in 100% DMSO in 384-well polypropylene plates (Greiner, Monroe, NC, Cat #784201) with 8 compounds per plate in grouped replicates of 4 at 10 serially diluted concentrations (1:3). The serially diluted compounds were transferred to low dead volume Echo plates (Labcyte, Sunnyvale, CA, Cat #LP-0200).
The test compounds were spotted to 384-well assay plates (Greiner, Monroe, NC, Cat #781091) at 200 nL per well. HEp-2 cells were harvested and suspended in DMEM (supplemented with 10% FBS and 1× Penicillin-Streptomycin-L-Glutamine) and seeded to the pre-spotted assay plates at 4,000 cells per well in 30 μL. RSV-Luc5 viruses were diluted in DMEM (supplemented with 10% FBS and 1× Penicillin-Streptomycin-L-Glucamine) at 200,000 Infectious Units (IU) per mL and 10 μL per well was added to the assay plates containing cells and compounds, for an MOI=0.5. The assay plates were incubated for 3 days at 37° C. and 5% CO2. At the end of incubation, One-Glo reagent (Promega, Madison, WI, Cat #E6120) was prepared. The assay plates and One-Glo reagent were equilibrated to room temperature for at least 15 minutes. 40 μL per well of One-Glo reagent was added and the plates were incubated at room temp for 15 minutes before reading the luminescence signal on an EnVision multimode plate reader (Perkin Elmer, Waltham, MA). Remdesivir was used as positive control and DMSO was used as negative control. Values were normalized to the positive and negative controls (as 0% and 100% replication, respectively) and data was fitted using non-linear regression analysis by Gilead's dose response tool. The EC50 value for each compound was then determined as the concentration reducing the viral replication by 50%.

In data set [4] the test system is Recombinant Respiratory Syncytial virus strain A2 containing the firefly luciferase reporter (RSV-Fluc) in NHBE cells. Nature of the data set: RSV NHBE FLuc EC50 (Example I). Conditions: human respiratory syncytial virus, 72 h, read-out: RSV NHBE FLuc EC50 (nM) (per Ex. I). The text has this:
Normal human bronchial epithelial (NHBE) cells are purchased from Lonza (Walkersville, MD Cat #CC-2540) and maintained in Bronchial Epithelial Cell Growth Medium (BEGM) (Lonza, Walkersville, MD, Cat #CC-3170) with all provided supplements in the BulletKit. Cells are passaged 2-3 times per week to maintain sub-confluent densities and are used for experiments at passages 2-4.
Recombinant Respiratory Syncytial virus strain A2 containing the firefly luciferase reporter between the P and M genes (RSV-Fluc, 6.3×10^6 TCID50/mL) is purchased from Viratree (Durham, NC, Cat #R^145).
NHBE cells (5×10^3/well) are seeded in 100 μL white wall/clear bottom 96-well plates (Corning) with culture medium and are incubated for 24 hours at 37° C. with 5% CO2. On the following day, three-fold serial dilutions of compounds prepared in DMSO are added to the wells using the HP D300e digital dispenser with normalization to the highest concentration of DMSO in all wells. The cells are then infected with RSV-Fluc diluted with BEGM media at an MOI of 0.1 for a final volume of 200 μL media/well. Uninfected and untreated wells are included as controls to determine compound efficacy against RSV-Fluc. Following incubation with compound and virus for three days at 37° C. with 5% CO2, 100 μL of culture supernatant is removed from each well and replaced with 100 μL of ONE-Glo luciferase reagent (Promega, Madison, WI, Cat #E6110). The plates are gently mixed by rocking for 10 minutes at 21° C. and luminescence signal is measured using an Envision plate reader (PerkinElmer). Values are normalized to the uninfected and infected DMSO controls (0% and 100% infection, respectively). Non-linear regression analysis is applied to determine the compound concentration at which 50% luminescence signal is reduced (EC50) using the XLfit4 add-in for MICROSOFT®EXCEL®. All experiments are performed in duplicate with two technical repeats each.

In data set [5] the test system is dengue virus type 2 in Huh7 hepatoblastoma cells. Nature of the data set: Dengue Virus-2 Huh-7 EC50 (Example W). Conditions: MOI of 0.07, CPE, neutral red dye, read-out: Dengue Virus-2 Huh-7 EC50 (nM) (per Ex. W). How it is done:
(§2) Huh7 hepatoblastoma cells were seeded onto 96-well plates and incubated at 37° C. with 5% CO2 overnight. The plates were seeded at a cell concentration that will yield >70% confluent monolayers in each well after overnight incubation. Eight 3-fold serial dilutions of compounds were diluted in test media (MEM supplemented with 2% FBS and 50 μg/mL gentamicin). The highest test compound concentration was 50 μg/mL. 100 μL of each concentration was added to 5 test wells on the 96-well plate. Of these 5 test wells, 3 wells of each dilution were infected with dengue virus type 2, diluted in test media (approximately 2000 CCID50 per well for an MOI of 0.07). Test medium (100 μL) with no virus was added to 2 wells to represent the uninfected cytotoxicity controls. Six additional infected wells received 100 μL media alone as untreated virus controls. Further, 100 μL of media alone was added to 6 uninfected wells to serve as uninfected, untreated controls. Cultures were incubated at 37° C.+5% CO2 until >80% CPE is observed. After cytopathic effect (CPE) is observed microscopically, 0.011% neutral red dye was added for approximately 2 hours. The neutral red dye was removed and wells were rinsed once with PBS to remove residual, unincorporated dye. A 50:50 Sorensen citrate buffer/ethanol solution was added and incubated at room temperature for >30 minutes with agitation, followed by measurement of neutral red dye using a spectrophotometer at 540 nm. The resulting optical density measurement was converted to percent signal of the infected, untreated cell control normalizing to virus controls. EC50 and CC50 values were determined by linear regression analysis.

The nature of the next data set: in vitro. Conditions: human. How it is done:
as §2

As to `CCCCCCCCCCCCCCCCCCOC[C@H](COP(=O)(O)OC[C@@]1(C#N)O[C@@H](c2ccc3c(N)ncnn23)[C@H](O)[C@@H]1O)OCc1ccc(OC)c(C#N)c1` [Compound 9, ((2R,3S,4R,5S)-5-(4-aminopyrrolo[2,1-f][1,2,4]triazin-7-yl)-2-cyano-3,4-dihydroxytetrahydrofuran-2-yl)methyl ((R)-2-((3-cyano-4-methoxybenzyl)oxy)-3-(octadecyloxy)propyl) hydrogen phosphate], the EC50 (as a rule, the concentration at which the effect is half-maximal) in data set [1] is 53 nM; in data set [3] it was 145 nM. Further, the CC50 (in general, the concentration giving 50% cytotoxicity) at 3 days in data set [2] was more than 48500 nM.
As for `CCCCCCCCCCCCCCCCCCC[C@H](COP(=O)(O)OC[C@@]1(C#N)O[C@@H](c2ccc3c(N)ncnn23)[C@H](O)[C@@H]1O)OCc1ccc(C#N)c(OC)c1` [Compound 27, ((2R,3S,4R)-5-(4-aminopyrrolo[2,1-f][1,2,4]triazin-7-yl)-2-cyano-3,4-dihydroxytetrahydrofuran-2-yl)methyl ((R)-2-((4-cyano-3-methoxybenzyl)oxy)henicosyl) hydrogen phosphate], the EC50 in data set [1] turned out to be 232 nM; in data set [4], 42 nM.
`CCCCCCCCCCCCCCCCCCOC[C@H](COP(=O)(O)OC[C@@]1(C#N)O[C@@H](c2ccc3c(N)ncnn23)[C@H](O)[C@@H]1O)Oc1cccc(C#N)c1` [Compound 50, ((2R,3S,4R,5S)-5-(4-aminopyrrolo[2,1-f][1,2,4]triazin-7-yl)-2-cyano-3,4-dihydroxytetrahydrofuran-2-yl)methyl ((R)-2-(3-cyanophenoxy)-3-(octadecyloxy)propyl) hydrogen phosphate]: the EC50 in data set [1] was determined as 12 nM; in data set [4], 18 nM; in data set [3], 91 nM. Moreover, the CC50 at 3 days in data set [2] is more than 50000 nM.
Regarding `CCCCCCCCCCCCCCCCCCOC[C@H](COP(=O)(O)OC[C@@]1(C#N)O[C@@H](c2ccc3c(N)ncnn23)[C@H](O)[C@@H]1O)OCc1cncc(C#N)c1` [Compound 66, ((2R,3S,4R)-5-(4-aminopyrrolo[2,1-f][1,2,4]triazin-7-yl)-2-cyano-3,4-dihydroxytetrahydrofuran-2-yl)methyl ((R)-2-((5-cyanopyridin-3-yl)methoxy)-3-(octadecyloxy)propyl) hydrogen phosphate], the values for the EC50 in data set [1], in data set [4] and in data set [3] were 21 nM, 50 nM and 56 nM, respectively. Moreover, half-maximal cytotoxicity in data set [2] (CC50 at 3 days) was put at 49100 nM.
In the case of `CCCCCCCCCCCCCCCCCCOC[C@@H](COP(=O)(O)OC[C@@]1(C#N)O[C@@H](c2ccc3c(N)ncnn23)[C@H](O)[C@@H]1O)OCc1ccc(C#N)cc1OC` [Compound 67, ((2R,3S,4R)-5-(4-aminopyrrolo[2,1-f][1,2,4]triazin-7-yl)-2-cyano-3,4-dihydroxytetrahydrofuran-2-yl)methyl ((S)-2-((4-cyano-2-methoxybenzyl)oxy)-3-(octadecyloxy)propyl) hydrogen phosphate], the figures for the EC50 in data set [1] and in data set [4] were 229 nM and 28 nM, respectively.
As for `CCCCCCCCCCCCCCOC[C@H](COP(=O)(O)OC[C@@]1(C#N)O[C@@H](c2ccc3c(N)ncnn23)[C@H](O)[C@@H]1O)Oc1ccc(C#N)cn1` [Compound 71], the EC50 in data set [4] stood at 199 nM; in data set [3], 2580 nM; in data set [5] it was 33000 nM. The compound also had a half-maximal cytotoxic concentration (CC50) at 3 days in data set [2] of more than 50000 nM. The CC50 in the data set “in vitro” was more than 50000 nM.
Regarding `CCCCCCCCCCCCCCOC[C@H](COP(=O)(O)OC[C@@]1(C#N)O[C@@H](c2ccc3c(N)ncnn23)[C@H](O)[C@@H]1O)Oc1ccc(C#N)nc1` [Compound 77, ((2R,3S,4R)-5-(4-aminopyrrolo[2,1-f][1,2,4]triazin-7-yl)-2-cyano-3,4-dihydroxytetrahydrofuran-2-yl)methyl ((R)-2-((6-cyanopyridin-3-yl)oxy)-3-(tetradecyloxy)propyl) hydrogen phosphate], the EC50 amounted to 222 nM in data set [1], 12 nM in data set [4] and 90 nM in data set [3]. Also, in data set [2], the CC50 at 3 days was more than 50000 nM.

(Values after patent US20250034182A1, “PHOSPHOLIPID COMPOUNDS AND METHODS OF MAKING AND USING THE SAME” (priority 2021, published 2025).)
